Test results from ChEMBL document CHEMBL6092153, “Research progress of BRD4 in head and neck squamous cell carcinoma: Therapeutic application of novel strategies and mechanisms” (Bioorg Med Chem, 2024).

Tests used:
[1] = tested on: SAS; test: Antiproliferative activity against human SAS cells assessed as reduction in cell viability by MTT assay; format: functional, cell-based
[2] = tested on: KYSE-450; test: Antiproliferative activity against human KYSE-450 cells assessed as reduction in cell growth incubated for 48 hrs by MTT assay; format: functional, cell-based; settings: KYSE-450, 48 h
[3] = tested on: FaDu; test: Antiproliferative activity against human FaDu cells assessed as inhibition of cell growth measured after 72 hrs by CCK-8 assay; format: functional, cell-based
[4] = Antiproliferative activity against human HaCaT cells assessed as inhibition of cell growth incubated for 48 hrs by SRB assay; format: toxicity, cell-based
[5] = tested on: KYSE-140; test: Antiproliferative activity against human KYSE-140 cells assessed as inhibition of cell growth by MTT assay; format: functional, cell-based
[6] = tested on: KYSE-510; test: Antiproliferative activity against human KYSE-510 cells assessed as reduction in cell growth incubated for 48 hrs by MTT assay; format: functional, cell-based; settings: KYSE-510, 48 h
[7] = tested on: TE-1; test: Antiproliferative activity against human TE-1 cells assessed as inhibition of cell growth by MTT assay; format: functional, cell-based
[8] = tested on: ECa-109 cell line; test: Antiproliferative activity against human EC109 cells assessed as reduction in cell viability measured after 48 hrs by CCK-8 method; format: functional, cell-based; settings: ECa-109, 48 h
[9] = tested on: KYSE-150 cell line; test: Antiproliferative activity against human KYSE-150 cell line assessed as inhibition of cell growth incubated for 48 hrs by CCK-8 assay; format: functional, cell-based; settings: KYSE-150, 48 h
[10] = Antiproliferative activity against human HOC313 cells assessed as reduction in cell viability by MTT assay; format: functional, cell-based

In the case of Cc1sc2c(c1C)C(c1ccc(Cl)cc1)=N[C@@H](CC(=O)OC(C)(C)C)c1nnc(C)n1-2, the IC50 [1] is reported as 169 nM, the IC50 [2] is reported as 124 nM and the IC50 [3] is reported as 9640 nM. It also gave an IC50 at 48 h [4] of 320 nM, an IC50 [5] of 4160 nM and an IC50 [6] of 121 nM. The IC50 [7] was 3990 nM, the IC50 [8] was 100 nM and the IC50 [9] was 55400 nM. For the same compound, the IC50 [10] was 288 nM.
